Like-named read-outs stand apart in the source and are kept apart here. Values belong to the molecule of their own block, whether it stands above or below them.
Experiments:
[1] = molecular target: T1, glucocerebrosidase (GCase), recombinant wt. enzyme velaglucerase alfa (Homo sapiens, UniProt P04062); assay: Glucocerebrosidase activity assay with blue substrate (4MU-Glc); assay type: biochemical
T1 construct: purchased Shire Human Genetic Therapies, Inc. Vpriv
T1 sequence (P04062 40-536): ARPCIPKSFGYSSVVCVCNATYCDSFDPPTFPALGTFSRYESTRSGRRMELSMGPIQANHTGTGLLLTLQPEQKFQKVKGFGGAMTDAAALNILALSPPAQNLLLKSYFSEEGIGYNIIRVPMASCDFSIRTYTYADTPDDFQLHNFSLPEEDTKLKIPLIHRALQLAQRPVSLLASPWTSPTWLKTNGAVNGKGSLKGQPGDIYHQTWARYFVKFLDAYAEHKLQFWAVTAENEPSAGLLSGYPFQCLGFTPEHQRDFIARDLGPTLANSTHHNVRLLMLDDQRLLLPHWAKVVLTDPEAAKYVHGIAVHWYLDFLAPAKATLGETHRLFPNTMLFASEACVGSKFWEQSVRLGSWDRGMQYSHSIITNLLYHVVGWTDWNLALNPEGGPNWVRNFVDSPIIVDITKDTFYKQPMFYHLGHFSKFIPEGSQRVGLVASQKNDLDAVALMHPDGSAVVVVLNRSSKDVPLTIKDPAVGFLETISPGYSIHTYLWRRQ
Experimental: (§1) The compounds in DMSO solution 0.5 μL/well were transferred to a black 96-well plate (the final titration was 24 nM to 50 μM, 12 concentrations, 2 times dilution). 33.5 μL enzyme solution (7.5 nM final concentration) was transferred to the wells. After 5 min of incubation at room temperature, the enzyme reaction was initiated by the addition of 33 μL/well blue substrate or 66.5 μL/well red substrate. Final concentrations of the blue substrate (4MU-Glc) and red substrate (Res-Glc) were 1.5 mM and 30 μM, respectively. The red substrate reaction was measured in the Biotek Synergy H1 multi-mode plate reader with Ex=573 nm and Em=610 nm at 37° C. every 20 sec for 30 min. The blue substrate reaction was terminated by the addition of 33 μL/well stop solution (1 M NaOH and 1 M glycine mixture, pH 10) after 30 min of incubation at 37° C. The fluorescence was then measured in the plate reader at Ex=365 nm and Em=440 nm.
The recombinant wt. enzyme velaglucerase alfa (Vpriv®, Shire Human Genetic Therapies, Inc.) was obtained from residual solution after clinical infusions. The GCase activity assay buffer was composed of 50 mM citric acid, 176 mM K2HPO4, and 0.01% Tween-20 at pH 5.9. A solution of 1 M sodium hydroxide and 1 M glycine was used as the stop solution for the 4MU-β-glc substrate assay.
The compounds in DMSO solution 0.5 μL/well was transferred to a black 96-well plate (the final titration was 24 nM to 50 μM, 12 concentrations). 33.5 μL enzyme solution (7.5 nM final concentration) was transferred to the wells. After 5 min of incubation at room temperature, the enzyme reaction was initiated by the addition of 33 μL/well 4MU-Glc substrate or 66.5 μL/well red substrate. Final concentrations of the 4MU-Glc substrate and Res-Glc substrate were 1.5 mM and 30 μM, respectively. The red substrate reaction was measured in the Biotek Synergy H1 multi-mode plate reader with Ex=573 nm and Em=610 nm at 37° C. in every 20 seconds for 30 min. The 4MU-Glc substrate reaction was terminated by the addition of 33 μL/well stop solution (1 M NaOH and 1 M glycine mixture, pH 10) after 30 min of incubation at 37° C. The fluorescence was then measured in the plate reader with Ex=365 nm and Em=440 nm.

[2] = molecular target: T1, glucocerebrosidase (GCase), recombinant wt. enzyme velaglucerase alfa; assay: Glucocerebrosidase activity assay with red substrate (Res-β-glc); assay type: biochemical; details: red substrate enzyme activity assay
Experimental: as §1, with “nm. […]” for “nm.”
The compounds in DMSO solution 0.5 μL/well was transferred to a black 96-well plate (the final titration was 24 nM to 50 μM, 12 concentrations). […] The red substrate reaction was measured in the Biotek Synergy H1 multi-mode plate reader with Ex=573 nm and Em=610 nm at 37° C. in every 20 seconds for 30 min. […] The fluorescence was then measured in the plate reader with Ex=365 nm and Em=440 nm.

[3] = molecular target: T2, recombinant wild type GCase (Homo sapiens, UniProt P04062); assay: Covalent binding assay: activity of GCase activated by probe 4; assay type: biochemical; details: for enzyme activity comparing to the wt. GCase: covalent activation
T2 construct: purchased Shire Human Genetic Therapies, Inc. Vpriv
T2 sequence (P04062 40-536): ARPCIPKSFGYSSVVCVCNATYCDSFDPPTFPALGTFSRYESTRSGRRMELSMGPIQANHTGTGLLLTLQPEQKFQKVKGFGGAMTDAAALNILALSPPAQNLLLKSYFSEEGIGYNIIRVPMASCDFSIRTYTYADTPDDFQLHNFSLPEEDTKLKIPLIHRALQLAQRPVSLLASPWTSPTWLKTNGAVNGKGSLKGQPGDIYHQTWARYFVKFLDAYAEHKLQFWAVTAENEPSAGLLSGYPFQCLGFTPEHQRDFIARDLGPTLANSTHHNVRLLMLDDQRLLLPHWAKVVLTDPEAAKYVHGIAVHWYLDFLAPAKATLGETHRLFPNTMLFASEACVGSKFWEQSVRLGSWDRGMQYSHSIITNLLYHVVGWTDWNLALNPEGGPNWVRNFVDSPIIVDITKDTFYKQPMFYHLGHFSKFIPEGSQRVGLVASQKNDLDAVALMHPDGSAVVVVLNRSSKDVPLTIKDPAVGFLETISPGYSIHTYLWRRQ
Experimental: To the recombinant wild type enzyme (22 μM, 95 μL, 1 equiv) in 0.1 M phosphate buffer (pH 7.2) was added 2,5-dioxopyrrolidin-1-yl 3-(2-(2-(4-(4-(2,4-dimethylpyrrolo[1,2-a]pyrimidine-8-carboxamido)phenyl)-1H-1,2,3-triazol-1-yl)ethoxy)ethoxy)propanoate (4) in DMSO (0.89 mM, 5 μL, 2 equiv) in one portion, and was vortexed for 5 sec immediately. At indicated time points, the reaction solution (2 μL) was sampled and diluted (1:3125 dilution) into the assay buffer (50 mM citric acid, 176 mM K2HPO4, and 0.01% Tween-20 at pH 5.9). After 2 h the reaction solution was dialyzed three times with 0.1 M phosphate buffer (pH 7.2). The enzyme was adjusted to the same concentration and sampled for activity. The dilution solutions were assayed with three substrates, resorufin substrate, 4-MU substrate, and natural substrate using the method in Example 5 and Example 6 without adding compounds.
The probe 4 was subjected to the covalent binding assay against GCase. The reaction conditions, including the buffer pH value, the concentration of the protein and probe, and the reaction temperature were carefully adjusted to achieve the maximum activation. With the optimized reaction condition, the enzyme activity was activated in a time-dependent manner (FIG. 5). The enzyme could be activated by probe 4 with around 22 and 28 folds activity comparing to the wt. GCase in the 4MU-Glc substrate (FIG. 5A) and red substrate (FIG. 5B) enzyme activity assay respectively.

[4] = Enzyme stability assay in pH 4.7 buffer; assay type: physicochemical; details: citrate/phosphate buffer pH 4.7, day 4
From the text: To test whether probe 4 changed the enzyme stability of GCase, we used two environments for GCase activity stability assay (Tekoah, Tzaban et al. 2013). The first one was citrate/phosphorylate buffer, which was at pH 4.7. In this condition, the wt. GCase only had about 15% activity left on day 4 (FIGS. 6A and 6B), which is similar to the previous research (Tekoah, Tzaban et al. 2013). An interesting finding was that even on day 10, activated GCase still had more than 20% activity left. […] One possible reason for the higher enzyme activity in low pH buffer was that activated GCase was stabilized by the covalent compound, and was more difficult to unfold.

U937 macrophage cells = assay: U937 macrophage uptake assay; assay type: cell-based, human; details: PMA-induced U937 cells, 4MU-β-glc substrate
Experimental: Human monocyte cell line U937 was optimally differentiated into macrophages by the addition of 75 ng/ml PMA (Brumshtein, Salinas et al. 2010) to the monocyte culture for 3 days (in 75 cm^2 flasks). Macrophages were enriched by adhesion to the culture plate and identified by morphology and receptor staining.
The assay was carried out according to the reported method (Tekoah, Tzaban et al. 2013) with slight modification. The enzyme was treated with compound 4 or DMSO at pH 7.2 for 60 min as described above, then dialyzed with PBS. U937 cells, after differentiation (˜1.6*10^6 cells), were incubated with 60 μg/ml of the activated enzymes and wt. enzyme in F12K medium for 10 min at 5% CO2, 37° C. incubator. The cells were then washed twice with ice cold PBS enriched with Mannan (1 mg/ml). To further ensure release of any proteins bound non-specifically to the membrane half of the cells were washed with ice cold glycine buffer: (0.8% NaCl, 0.038% KCl, 0.01% MgCl2, 0.01% CaCl2, 0.7% glycine [pH 3]) followed by two additional cold PBS washes. The other half of the wells were used as controls for measuring total enzymatic activity (bound and internalized enzyme). The cells were lysed by adding β-glucocerebrosidase activity buffer (60 mM phosphate-citrate buffer; 0.15% Triton X-100; 0.125% sodium taurocholate, pH 5.5), followed by pipetting and one freeze/thaw cycle. The obtained lysates were subjected to determination of enzymatic activity using the colorimetric method detailed above. The total enzymatic activity was normalized to total soluble proteins as measured by Bradford assay. The effective uptake was calculated as the percentage of activity within the cells out of the total enzymatic activity of the controls.

[5] = Table 2, values marked activator, read-out: Activity AC50 or IC50
[6] = Table 1, titration 24 nM to 50 μM, substrate not given, read-out: Ac50

Molecule: Cc1cc(C)n2ccc(C(=O)Nc3ccc(-c4cn(CCOCCOCCC(=O)ON5C(=O)CCC5=O)nn4)cc3)c2n1 [No. 2, 2,5-Dioxopyrrolidin-1-yl 3-(2-(2-(4-(4-(2,4-dimethylpyrrolo[1,2-a]pyrimidine-8-carboxamido)phenyl)-1H-1,2,3-triazol-1-yl)ethoxy)ethoxy)propanoate]
maximum activity / activation activity ([1]; 4MU-Glc substrate enzyme activity assay): 20 folds
activation activity, red substrate [2]: 10 folds
enzyme activity comparing to the wt. GCase ([3]; 4MU-Glc substrate): around 22 folds
enzyme activity comparing to the wt. GCase ([3]; red substrate): ~28 folds
enzyme activity followed by dialysis ([3]; three substrate assays, in words): not decreased significantly

Molecule: Cc1cc(C)n2ccc(C(=O)Nc3ccc(C#CCCCCCCC#Cc4ccc(NC(=O)c5ccn6c(C)cc(C)nc56)cc4)cc3)c2n1 [compound 76]
activator (word in Activity cell) ([1]; Table 2): activator
AC50 [1, 5]: 28.2 µM

Molecule: COC(=O)CCCCCCCCC#Cc1ccc(NC(=O)c2ccn3c(C)cc(C)nc23)cc1 [compound 74]
activator (word in Activity cell) ([1]; Table 2): activator
AC50 [1, 5]: 0.71 µM

Molecule: Cc1cc(C)n2ccc(C(=O)Nc3ccc(-c4cn(CCCCCCCCC(=O)O)nn4)cc3)c2n1 [compound 59]
Activator / Inhibitor (word in Ac50 cell) ([1]; Table 1): Activator
AC50 [1, 6]: 1.78 µM

Molecule: Cc1cc(C)n2ccc(C(=O)NC3CCCCC3)c2n1 [compound 27]
AC50 [1, 6]: 15.8 µM

Molecule: Cc1cc(-c2cccnc2)nc2c(C(=O)Nc3ccc(C#CCCCCCCCCC(=O)ON4C(=O)CCC4=O)cc3)ccn12 [compound 83]
activator (word in Activity cell) ([1]; Table 2): activator
AC50 [1, 5]: 0.56 µM

B1: wt. GCase: recombinant wt. enzyme velaglucerase alfa (Vpriv, Shire Human Genetic Therapies, Inc.) (protein, UniProt P04062 40-536, looked up)
Lysosomal acid …: ARPCIPKSFGYSSVVCVCNATYCDSFDPPTFPALGTFSRYESTRSGRRMELSMGPIQANHTGTGLLLTLQPEQKFQKVKGFGGAMTDAAALNILALSPPAQNLLLKSYFSEEGIGYNIIRVPMASCDFSIRTYTYADTPDDFQLHNFSLPEEDTKLKIPLIHRALQLAQRPVSLLASPWTSPTWLKTNGAVNGKGSLKGQPGDIYHQTWARYFVKFLDAYAEHKLQFWAVTAENEPSAGLLSGYPFQCLGFTPEHQRDFIARDLGPTLANSTHHNVRLLMLDDQRLLLPHWAKVVLTDPEAAKYVHGIAVHWYLDFLAPAKATLGETHRLFPNTMLFASEACVGSKFWEQSVRLGSWDRGMQYSHSIITNLLYHVVGWTDWNLALNPEGGPNWVRNFVDSPIIVDITKDTFYKQPMFYHLGHFSKFIPEGSQRVGLVASQKNDLDAVALMHPDGSAVVVVLNRSSKDVPLTIKDPAVGFLETISPGYSIHTYLWRRQ
modifications: velaglucerase alfa
activity left [4]: about 15%
activity compared to endogenous GC (U937 macrophage cells): about 3 folds

Further lines, results first:

AC50 [1, 6]: 7.08 µM
Molecule: Cc1cc(C)n2ccc(C(=O)Nc3ccc(N4CCN(C)CC4)cc3)c2n1 [compound 10]

AC50 [1, 6]: 39.8 µM
Molecule: Cc1cc(C)n2ccc(C(=O)Nc3ccc(CN4CCN(C)CC4)cc3)c2n1 [compound 8]

AC50 [1, 6]: 44.7 µM
Molecule: Cc1cc(C)n2ccc(C(=O)Nc3ccc(CCN4CCN(C)CC4)cc3)c2n1 [compound 16]

AC50 [1, 6]: 15.8 µM
Molecule: Cc1cc(C)n2ccc(C(=O)NCc3cccs3)c2n1 [compound 51]

AC50 [1, 6]: 14.1 µM
Molecule: Cc1cc(C)n2ccc(C(=O)Nc3ccc(CN(C)C)cc3)c2n1 [compound 20]

AC50 [1, 6]: 35.5 µM
Molecule: Cc1cc(C)n2ccc(C(=O)Nc3ncc4ccccc4n3)c2n1 [compound 45]

AC50 [1, 6]: 0.2 µM
Molecule: Cc1ccc2nc(NC(=O)c3ccn4c(C)cc(C)nc34)sc2c1 [compound 48]

AC50 [1, 6]: 2.82 µM
Molecule: Cc1cc(C)n2ccc(C(=O)Nc3ccc(CCO)cc3)c2n1 [compound 30]

AC50 [1, 6]: 1.41 µM
Molecule: Cc1cc(C)n2ccc(C(=O)Nc3ccc(N4CCOCC4)cc3)c2n1 [compound 19]

AC50 [1, 6]: 1.41 µM
Molecule: Cc1cc(C)n2ccc(C(=O)Nc3ccc(-c4ccccc4)cc3)c2n1 [compound 24]

Reference: patent publication US9802942B2, “Substituted 4-methyl-pyrrolo[1,2-A]pyrimidine-8-carboxamide compounds and uses thereof for modulating glucocerebrosidase activity” (Northwestern University, priority 2015, dated 2017)
